From US5516905A, “Antibiotic compounds and methods to treat gram-positive bacterial and mycoplasmal infections” (priority 1994, dated 1996)
Converted amounts (≈) assume the structure as drawn. Where two headings read alike, the source gives them in different places.

Assays:
[1] = molecular target: T1, exo activity of peak A pol (Bacillus subtilis, UniProt P13267); assay: Exo activity of peak A enzyme on 3'-labelled ssDNA; type: biochemical, M. pulmonis; conditions: for inhibition at 50 µM: read-out: Inhibition of ssDNA digestion
T1 construct: we prepared a crude extract of M. pulmonis; endogenous in cells; host or cells: M. pulmonis (strain KD735-15 was the strain propagated)
Experimental: (§1) Exo activity was assayed as described by Low et al. (1976), supra, using denatured calf-thymus DNA incorporating [^3 H]-dTMP residues at the 3'-OH ends.
(§2) TMAU at 50 μM inhibited ssDNA digestion by about 70% in the presence of dsDNA. When the latter mixture was supplemented with 500 μM dGTP, the specific antagonist of TMAU-induced sequestration inhibition was reduced to a level of <3%.

[2] = molecular target: T2, M. pulmonis peak A pol activity (Pol III); assay: DNA polymerase activity assay, M. pulmonis peak A pol (Bio-Rex 70); type: biochemical; conditions: Fraction 7 from peak A; dGTP 10 μM; arylazopyrimidines reduced to hydrazino forms
T2 construct: we prepared a crude extract of M. pulmonis; endogenous in cells; host or cells: M. pulmonis (strain KD735-15 was the strain propagated)
Experimental: (§3) Fraction Va (Bio-Rex 70 chromatography): Fraction IV was diluted with column buffer containing 1% Triton X-100 to reduce the concentration of NaCl to 25 mM, and then applied to a 2 ml Bio-Rex 70 (Bio-Rad) column equilibrated in column buffer containing 1% Triton X-100+25 mM NaCl. The column was washed with 5 ml of the same buffer, and the adsorbed enzyme was eluted in two distinct peaks (designated A and B) at approximately 0.15 and 0.30M NaCl, respectively. As the top panel of the figure indicates, peak A represents the HPUra-sensitive pol activity. Peak A was pooled to generate Fraction Va.
(§4) DNA pol activity was assayed as described (Barnes et al., NuC. Acids Res., 6:1203-19 (1979)), using activated calf-thymus DNA as template primer, […] [^3 H-methyl]-dTTP as the labelled dNTP substrate, and dATP, dCTP, and dGTP at 25 μM each. For determination of IC50 values of TMAU and the four arylazopyrimidines (summarized in Table 2), the concentration of dGTP was reduced from 25 to 10 μM. TMAU was used directly in enzyme assays, and arylazopyrimidines were reduced prior to assay to the active, hydrazino forms, using sodium dithionite as described by Wright and Brown (1977) J. Med. Chem. 20:1181-1185.
(§5) Five compounds were used to assess the sensitivity of peak A pol activity to HPUra-type inhibitors. These were the four compounds used in the growth experiment described above (HPUra, PUra, PCPUra, and MCPUra) as well as TMAU (6-([…]) uracil), a `second generation` derivative of the HPUra prototype, equivalent in mechanism and target specificity (Wright and Brown, 1990). The IC50 value (the concentration required for 50% inhibition) of each of these agents was determined for the peak A pol activity and for an inhibitor-sensitive control enzyme, B. subtilis Pol III.

[3] = system: M. pulmonis strain KD735-15; assay: Mycoplasmal growth inhibition on agar (colony formation, cfu); type: cell-based, Mycoplasma pulmonis; conditions: for IC99: Mycoplasmopsis pulmonis, KD73515, series 100, 50, 25, 12.5 and 6.25 μM, read-out: Concentration required to inhibit colony formation by 99%
Experimental: M. pulmonis strain KD735-15 (construction described in Bhugra and Dybvig, 1992) was propagated in mycoplasmal medium, and colony-forming units (cfu) were assessed on agar as previously described (Dybvig and Cassell, 1987). M pulmonis is a representative species which is well characterized. Other publicly available strains may also be used. For example, Mycoplasma agalactiae, ATCC 35890, Mycoplasma arthritidis ATCC 13988, Mycoplasma bovigenitalium, ATCC 14173, Mycoplasma bovirhinis, ATCC 27748, Mycoplasma bovis, ATCC 25025, Mycoplasma felis, ATCC 23391, Mycoplasma gallinaceum, ATCC 33550, Mycoplasma gallinarum, ATCC 15319, Mycoplasma gallisepticum, ATCC 15302, Mycoplasma genitalium, ATCC 33530, Mycoplasma hominis, ATCC 14027, Mycoplasma hyorhinis, ATCC 17981, Mycoplasma hyosynoviae, ATCC 25591, Mycoplasma meleagridis, ATCC 25294, Mycoplasma orale, ATCC 15539, Mycoplasma pneumoniae, ATCC 15293, Mycoplasma pullorum, ATCC 33553, Mycoplasma pulmonis, ATCC 14267, Mycoplasma putrefaciens, ATCC 15718, Mycoplasma synoviae, ATCC 25204, may also be used. The inhibitors used here were prepared as described in Wright and Brown ((1990) Pharmac. Ther. 47:447-497) and were prepared at a stock concentration of 20 mM in dimethyl sulphoxide (DMSO). Growth inhibition was examined on agar by comparing cfu obtained on medium lacking or supplemented with antibiotic. DMSO alone at concentrations as high as 1% had no effect on growth or cfu capacity of M. pulmonis.
HPUra and 25 other agents selected from a large collection of structurally related compounds (Wright and Brown, 1990, Pharmac. Ther. 47:447-497) were tested against M. pulmonis at a concentration of 200 μM as described in the Experimental procedures.

[4] = molecular target: T3, B. subtilis Pol III (Bacillus subtilis, UniProt P13267); assay: DNA polymerase activity assay, B. subtilis Pol III; type: biochemical; conditions: dGTP 10 μM; arylazopyrimidines reduced to hydrazino forms
T3 construct: B. subtilis Pol III was prepared and used as described by (Barnes); made in house
Experimental: as §4, §5

[5] = system: Wild-Type BS; assay: Minimal inhibitory concentration vs. growth of B. subtilis; type: cell-based; conditions: Bacillus subtilis
[6] = system: Methicillin-Resistant SA; assay: Minimal inhibitory concentration vs. growth of methicillin-resistant Staphylococcus aureus; type: cell-based
[7] = system: Control SA; assay: Minimal inhibitory concentration vs. growth of Staphylococcus aureus (control strain); type: cell-based
[8] = system: T4, exo activity of peak A pol; assay: Exo activity of peak A enzyme on 3'-labelled ssDNA; type: biochemical, M. pulmonis; conditions: TMAU 50 μM, dsDNA, plus 500 μM dATP
T4 construct: we prepared a crude extract of M. pulmonis; endogenous in cells; host or cells: M. pulmonis (strain KD735-15 was the strain propagated)
Experimental: as §1, §2

[9] = molecular target: T5, M. pulmonis peak A pol activity (Pol III) (Bacillus subtilis, UniProt P13267); assay: DNA polymerase activity assay, M. pulmonis peak A pol (Bio-Rex 70); type: biochemical; conditions: 200 μM HPUra
T5 construct: we prepared a crude extract of M. pulmonis; endogenous in cells; host or cells: M. pulmonis (strain KD735-15 was the strain propagated)
Experimental: as §3, §4, §5

[10] = system: M. pulmonis peak B pol activity; assay: DNA polymerase activity assay, M. pulmonis peak B pol (Bio-Rex 70); type: biochemical; conditions: 200 μM HPUra
Experimental: as §3, §4
To characterize the HPUra-sensitive pol activity further, we purified it using a five-step scheme summarized in Table 1 and described in the Experimental procedures. […]

[11] = system: mammalian cells; conditions: cited from earlier work
[12] = nucleotide 500 μM, no TMAU, sequestering conditions with dsDNA

T2 sequence (P13267 whole entry): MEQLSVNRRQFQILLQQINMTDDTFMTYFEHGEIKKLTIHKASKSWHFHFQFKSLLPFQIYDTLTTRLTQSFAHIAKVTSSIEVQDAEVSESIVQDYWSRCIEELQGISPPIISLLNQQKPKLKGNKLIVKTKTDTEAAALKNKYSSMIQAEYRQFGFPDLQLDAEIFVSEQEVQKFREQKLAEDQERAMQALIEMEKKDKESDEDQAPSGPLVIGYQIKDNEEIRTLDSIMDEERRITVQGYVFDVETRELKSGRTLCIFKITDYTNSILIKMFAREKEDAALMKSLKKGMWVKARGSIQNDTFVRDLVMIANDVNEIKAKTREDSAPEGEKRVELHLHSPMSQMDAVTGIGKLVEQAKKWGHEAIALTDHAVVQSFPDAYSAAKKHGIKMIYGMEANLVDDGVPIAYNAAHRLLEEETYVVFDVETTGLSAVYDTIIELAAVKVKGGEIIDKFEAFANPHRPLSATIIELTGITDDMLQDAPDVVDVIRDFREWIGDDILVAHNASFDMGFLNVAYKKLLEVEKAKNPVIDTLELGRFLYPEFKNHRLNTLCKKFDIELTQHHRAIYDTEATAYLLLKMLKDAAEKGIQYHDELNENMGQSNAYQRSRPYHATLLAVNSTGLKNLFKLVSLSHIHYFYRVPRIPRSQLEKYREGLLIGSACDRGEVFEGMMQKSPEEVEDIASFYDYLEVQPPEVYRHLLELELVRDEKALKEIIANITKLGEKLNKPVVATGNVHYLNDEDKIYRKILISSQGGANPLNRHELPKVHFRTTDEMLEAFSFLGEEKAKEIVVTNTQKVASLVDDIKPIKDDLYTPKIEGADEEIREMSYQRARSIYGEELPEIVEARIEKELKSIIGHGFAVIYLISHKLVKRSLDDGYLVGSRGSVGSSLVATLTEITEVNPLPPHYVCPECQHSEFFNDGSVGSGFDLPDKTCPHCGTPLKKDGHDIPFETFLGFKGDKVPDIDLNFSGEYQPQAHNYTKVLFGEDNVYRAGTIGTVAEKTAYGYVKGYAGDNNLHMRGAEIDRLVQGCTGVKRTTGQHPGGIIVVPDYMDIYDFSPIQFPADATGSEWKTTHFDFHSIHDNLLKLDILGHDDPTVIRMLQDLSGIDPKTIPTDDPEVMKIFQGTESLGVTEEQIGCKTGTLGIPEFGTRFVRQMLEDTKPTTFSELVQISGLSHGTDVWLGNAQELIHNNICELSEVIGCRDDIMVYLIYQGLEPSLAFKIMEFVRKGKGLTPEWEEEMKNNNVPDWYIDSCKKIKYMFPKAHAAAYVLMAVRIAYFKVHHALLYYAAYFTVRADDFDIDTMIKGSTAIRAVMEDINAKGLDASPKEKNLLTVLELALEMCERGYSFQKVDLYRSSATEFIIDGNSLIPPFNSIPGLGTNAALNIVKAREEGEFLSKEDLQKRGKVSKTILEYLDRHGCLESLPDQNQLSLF
T3 sequence (P13267 whole entry): as above
T1 sequence (P13267 whole entry): as above
T4 sequence (P13267 whole entry): as above
T5 sequence (P13267 whole entry): as above

| IC50 [2] [µM] | IC50 [4] [µM] | MIC [5] [µg/mL] | MIC [6] [µg/mL] | MIC [7] [µg/mL] | SMILES | also measured |
| --- | --- | --- | --- | --- | --- | --- |
| 20 | 34 | – | – | – | O=c1cc(N=Nc2ccccc2)[nH]c(=O)[nH]1 [PUra, 6-(phenylazo)uracil] | IC99 [3]: 6.25 to 12.5 µM |
| 17 | 48 | – | – | – | O=c1cc(N=Nc2cccc(Cl)c2)[nH]c(=O)[nH]1 [MCPUra, 6-(m-chlorophenylazo)uracil] | IC99 [3]: 12.5 µM |
| 11 | 8 | 23 (≈ 94.5 µM) | 4 (≈ 16.4 µM) | 8 (≈ 32.9 µM) | O=c1cc(Nc2ccc3c(c2)CCC3)[nH]c(=O)[nH]1 [TMAU, 6-(3',4'-trimethylanilino) uracil] | Effect of dATP on level of inhibition of ssDNA digestion [8]: no significant effect; Exo Activity (%) ([1]; TMAU 50 μM + dGTP 500 μM, sequestering conditions with dsDNA): 98%; activity at 50 µM ([1]; TMAU 50 μM alone, sequestering conditions with dsDNA): 31%; inhibition at 50 µM ([1]; TMAU 50 μM, dsDNA, plus 500 μM dGTP): < 3%; inhibition at 50 µM ([1]; TMAU 50 μM, in the presence of dsDNA): ~70%; Exo activity on ssDNA, sensitivity ([1]; TMAU 50 μM, ssDNA without dsDNA, preliminary, results not shown): resistant |
| 31 | 57 | – | – | – | Oc1cc(N=Nc2ccc(Cl)cc2)nc(O)n1 [PCPUra, 6-(p-chlorophenylazo) uracil] | IC99 [3]: < 6.25 µM |
| – | – | 7 (≈ 27.2 µM) | – | – | Cn1c(=O)cc(Nc2ccc3c(c2)CCC3)[nH]c1=O [CH3] | – |

The remaining lines, values behind:

| SMILES | IC50 [2] [µM] | IC50 [4] [µM] | MIC [5] [µg/mL] | MIC [6] [µg/mL] | MIC [7] [µg/mL] | also measured |
| --- | --- | --- | --- | --- | --- | --- |
| Nc1ncnc2c1ncn2[C@H]1C[C@H](O)[C@@H](COP(=O)(O)OP(=O)(O)OP(=O)(O)O)O1 [dATP] | – | – | – | – | – | Exo Activity (%) [1, 12]: 101% |
| CCCCn1c(=O)cc(Nc2ccc3c(c2)CCC3)[nH]c1=O [nC4 H9] | – | – | 1.8 (≈ 6.01 µM) | 0.5 (≈ 1.67 µM) | > 128 | – |
| COc1cccc(OC)c1C(=O)N[C@@H]1C(=O)N2[C@@H]1SC(C)(C)[C@@H]2C(=O)O [Methicillin] | – | – | – | 128 (≈ 336 µM) | 1 (≈ 2.63 µM) | – |
| O=c1cc(N=Nc2ccc(O)cc2)[nH]c(=O)[nH]1 [HPUra, 6-(p-Hydroxyphenylazo)-uracil] | 14 | 11 | – | – | – | Sensitivity of peak A pol activity [9]: drug-sensitive; Sensitivity of peak B pol activity [10]: insensitive; Toxicity in mammalian cells [11]: low toxicity; Inhibition of colony formation ([3]; 200 μM): completely inhibited colony formation |
| CCn1c(=O)cc(Nc2ccc3c(c2)CCC3)[nH]c1=O [C2 H5] | – | – | 4 (≈ 14.7 µM) | 0.5 (≈ 1.84 µM) | 1 (≈ 3.69 µM) | – |
| CCCn1c(=O)cc(Nc2ccc3c(c2)CCC3)[nH]c1=O [nC3 H7] | – | – | 3.5 (≈ 12.3 µM) | – | – | – |
| Nc1nc2c(ncn2[C@H]2C[C@H](O)[C@@H](COP(=O)(O)OP(=O)(O)OP(=O)(O)O)O2)c(=O)[nH]1 [dGTP] | – | – | – | – | – | Exo Activity (%) [1, 12]: 103% |
